Reference: patent publication US10023590B2, “Substituted pyridine compounds having herbicidal activity” (BASF SE, priority 2014, dated 2018)
Read-outs that look alike come from different tables or passages of the source.

Assays:
Type in all cases: in vivo
[1] = tested on: Amaranthus retroflexus; assay: Greenhouse post-emergence herbicidal activity, AMARE; conditions: AMARE
From the text: (§1) The culture containers used were plastic flowerpots containing loamy sand with approximately 3.0% of humus as the substrate. The seeds of the test plants were sown separately for each species.
(§2) For the post-emergence treatment, the test plants were first grown to a height of 3 to 15 cm, depending on the plant habit, and only then treated with the active ingredients which had been suspended or emulsified in water. For this purpose, the test plants were either sown directly and grown in the same containers, or they were first grown separately as seedlings and transplanted into the test containers a few days prior to treatment.
(§3) Depending on the species, the plants were kept at 10-25° C. or 20-35° C., respectively.
(§4) The test period extended over 2 to 4 weeks. During this time, the plants were tended, and their response to the individual treatments was evaluated.
(§5) Evaluation was carried out using a scale from 0 to 100. 100 means no emergence of the plants, or complete destruction of at least the aerial moieties, and 0 means no damage, or normal course of growth. A good herbicidal activity is given at values of at least 70 and a very good herbicidal activity is given at values of at least 85.

[2] = tested on: Oryza sativa; assay: Greenhouse post-emergence herbicidal activity on crop ORYSA (rice)
From the text: as §1, §2, §3, §4, §5

[3] = tested on: Echinocloa crus-galli; assay: Greenhouse post-emergence herbicidal activity, ECHCG; conditions: Echinochloa crus-galli, ECHCG
From the text: as §1, §2, §3, §4, §5

[4] = tested on: Kochia scoparia; assay: Greenhouse post-emergence herbicidal activity, KCHSC; conditions: scale 0 to 100
From the text: as §1, §2, §3, §4, §5

[5] = tested on: Zea mays; assay: Greenhouse post-emergence herbicidal activity on crop ZEAMX (corn, maize); set-up: key: 0 = no damage/normal growth, 100 = no emergence or complete destruction
From the text: as §1, §2, §3, §4, §5

[6] = tested on: Abutilon theophrasti; assay: Greenhouse post-emergence herbicidal activity, ABUTH; conditions: ABUTH
From the text: as §1, §2, §3, §4, §5

[7] = tested on: Stellaria media; assay: Greenhouse post-emergence herbicidal activity, STEME
From the text: as §1, §2, §3, §4, §5

[8] = tested on: Chenopodium album; assay: Greenhouse post-emergence herbicidal activity, CHEAL
From the text: as §1, §2, §3, §4, §5

[9] = tested on: Setaria viridis; assay: Greenhouse post-emergence herbicidal activity, SETVI
From the text: as §1, §2, §3, §4, §5

[10] = tested on: Ambrosia artemisiifolia; assay: Greenhouse post-emergence herbicidal activity, AMBEL; conditions: scale 0 to 100
From the text: as §1, §2, §3, §4, §5

[11] = tested on: Cirsium arvense; assay: Greenhouse post-emergence herbicidal activity, CIRAR; conditions: CIRAR, 0.125 kg/ha, scale 0 to 100
From the text: as §1, §2, §3, §4, §5

[12] = 2 kg/ha, scale 0 to 100, read-out: Herbicidal activity
[13] = ORYSA (rice, crop), 0.125 kg/ha, scale 0 to 100
[14] = ZEAMX (corn, crop), 0.125 kg/ha, scale 0 to 100
[15] = crop ZEAMX (corn, maize), application rate 0.031 kg/ha
[16] = ORYSA (rice, crop), 0.031 kg/ha, scale 0 to 100
[17] = ORYSA (rice, crop), 0.063 kg/ha, scale 0 to 100
[18] = ZEAMX (corn, crop), 0.031 kg/ha, scale 0 to 100
[19] = ZEAMX (corn, crop), 0.063 kg/ha, scale 0 to 100
[20] = application rate 2 kg/ha, read-out: Herbicidal activity

Compound	pest or weed control at 2000 g/ha [1, 12] [%]	Herbicidal activity [2, 13]	pest or weed control at 2000 g/ha [3, 12] [%]	Herbicidal activity [5, 14]	pest or weed control at 31 g/ha ([1]; 0.031 kg/ha, scale 0 to 100) [%]	pest or weed control at 63 g/ha ([1]; 0.063 kg/ha, scale 0 to 100) [%]	pest or weed control at 125 g/ha ([1]; 0.125 kg/ha, scale 0 to 100) [%]	Herbicidal activity [2, 16]	Herbicidal activity [2, 17]	pest or weed control at 31 g/ha ([3]; 0.031 kg/ha, scale 0 to 100) [%]	pest or weed control at 63 g/ha ([3]; 0.063 kg/ha, scale 0 to 100) [%]	pest or weed control at 125 g/ha ([3]; 0.125 kg/ha, scale 0 to 100) [%]	pest or weed control at 31 g/ha ([8]; 0.031 kg/ha, scale 0 to 100) [%]	pest or weed control at 63 g/ha ([8]; 0.063 kg/ha, scale 0 to 100) [%]	pest or weed control at 125 g/ha ([8]; 0.125 kg/ha, scale 0 to 100) [%]	Herbicidal activity [5, 18]	Herbicidal activity [5, 19]	pest or weed control at 2000 g/ha [6, 12] [%]	also measured
Cc1c(C2=C(OC(=O)C(C)(C)C)c3ncccc3C(C)(C)S2(=O)=O)cccc1N(C)S(C)(=O)=O [I-13, [5,5-dimethyl-7-[2-methyl-3-[methyl(methylsulfonyl)amino]phenyl]-6,6-dioxo-thiopyrano[4,3-b]pyridin-8-yl] 2,2-dimethylpropanoate]	100	0	75	0	–	–	–	–	–	–	–	–	–	–	–	–	–	–	Herbicidal activity ([4]; 0.125 kg/ha): 90
CN(c1c(Cl)ccc(C2=C(O)c3ncccc3CS2(=O)=O)c1C(F)(F)F)S(C)(=O)=O [I-31, N-[6-chloro-3-(8-hydroxy-6,6-dioxo-5H-thiopyrano[4,3-b]pyridin-7-yl)-2-(trifluoromethyl)phenyl]-N-methyl-methanesulfonamide]	–	–	–	–	–	–	–	–	–	–	–	–	–	–	–	–	–	–	pest or weed control at 125 g/ha ([1]; application rate 0.125 kg/ha): 98%; pest or weed control at 250 g/ha ([1]; application rate 0.25 kg/ha): 98%; pest or weed control at 125 g/ha ([3]; application rate 0.125 kg/ha): 98%; pest or weed control at 250 g/ha ([3]; application rate 0.25 kg/ha): 98%; pest or weed control at 31 g/ha ([6]; application rate 0.031 kg/ha): 70%; pest or weed control at 63 g/ha ([6]; application rate 0.063 kg/ha): 90%; Herbicidal activity ([7]; application rate 0.031 kg/ha): 80; Herbicidal activity ([7]; application rate 0.063 kg/ha): 100; pest or weed control at 63 g/ha ([8]; application rate 0.063 kg/ha): 98%; pest or weed control at 125 g/ha ([8]; application rate 0.125 kg/ha): 98%; pest or weed control at 250 g/ha ([8]; application rate 0.25 kg/ha): 98%; Herbicidal activity [5, 15]: 5
Cc1c(C2=C(O)c3ncccc3C(C)(C)S2(=O)=O)ccc(Cl)c1N(C)S(C)(=O)=O [I-29, N-[6-chloro-3-(8-hydroxy-5,5-dimethyl-6,6-dioxo-thiopyrano[4,3-b]pyridin-7-yl)-2-methyl-phenyl]-N-methyl-methanesulfonamide]	–	35	–	15	95	95	98	0	25	85	90	95	98	98	98	0	5	–	pest or weed control at 250 g/ha ([1]; 0.25 kg/ha, scale 0 to 100): 98%; Herbicidal activity ([7]; 0.25 kg/ha, scale 0 to 100): 98; pest or weed control at 250 g/ha ([8]; 0.25 kg/ha, scale 0 to 100): 98%
CN(c1c(Cl)ccc(C2=C(O)c3ncc(F)cc3C(C)(C)S2(=O)=O)c1Cl)S(C)(=O)=O [I-38, N-[2,6-dichloro-3-(3-fluoro-8-hydroxy-5,5-dimethyl-6,6-dioxo-thiopyrano[4,3-b]pyridin-7-yl)phenyl]-N-methyl-methanesulfonamide]	–	–	–	–	–	–	–	–	–	–	–	–	–	–	–	–	–	–	Herbicidal activity ([9]; application rate 0.125 kg/ha): 100; pest or weed control at 31 g/ha ([1]; application rate 0.031 kg/ha): 98%; pest or weed control at 63 g/ha ([1]; application rate 0.063 kg/ha): 98%; pest or weed control at 125 g/ha ([1]; application rate 0.125 kg/ha): 98%; Herbicidal activity ([2]; crop ORYSA (rice), application rate 0.031 kg/ha): 35; pest or weed control at 31 g/ha ([3]; application rate 0.031 kg/ha): 95%; pest or weed control at 63 g/ha ([3]; application rate 0.063 kg/ha): 95%; pest or weed control at 125 g/ha ([3]; application rate 0.125 kg/ha): 100%; pest or weed control at 31 g/ha ([8]; application rate 0.031 kg/ha): 98%; pest or weed control at 63 g/ha ([8]; application rate 0.063 kg/ha): 95%; pest or weed control at 125 g/ha ([8]; application rate 0.125 kg/ha): 98%; Herbicidal activity [5, 15]: 0; Herbicidal activity ([5]; crop ZEAMX (corn, maize), application rate 0.063 kg/ha): 0; Herbicidal activity ([5]; crop ZEAMX (corn, maize), application rate 0.125 kg/ha): 15
CN(c1cccc(C2=C(O)c3ncccc3C(C)(C)S2(=O)=O)c1Cl)S(C)(=O)=O [I-17, N-[2-chloro-3-(8-hydroxy-5,5-dimethyl-6,6-dioxo-thiopyrano[4,3-b]pyridin-7-yl)phenyl]-N-methyl-methanesulfonamide]	100	–	100	–	98	100	100	–	10	95	–	–	100	100	100	–	–	100	Herbicidal activity ([10]; 0.063 kg/ha): 100; Herbicidal activity ([10]; 0.125 kg/ha): 100
CN(c1c(Cl)ccc(C2=C(OC(=O)C(C)(C)C)c3ncccc3C(C)(C)S2(=O)=O)c1Cl)S(C)(=O)=O [I-30]	–	–	–	–	–	–	–	–	–	–	–	–	–	–	–	–	–	–	pest or weed control at 2000 g/ha [1, 20]: 100%; pest or weed control at 2000 g/ha [3, 20]: 100%; pest or weed control at 2000 g/ha [6, 20]: 100%
CN(C)S(=O)(=O)Oc1c(Cl)ccc(C2=C(O)c3ncccc3CS2(=O)=O)c1Cl [I-22]	100	40	100	15	–	70	75	30	35	80	90	95	–	95	100	0	0	–	Herbicidal activity ([9]; 2 kg/ha, scale 0 to 100): 98
CN(c1ccc(Cl)c(C2=C(O)c3ncccc3CS2(=O)=O)c1Cl)S(C)(=O)=O [I-4, N-[2,4-dichloro-3-(8-hydroxy-6,6-dioxo-5H-thiopyrano[4,3-b]pyridin-7-yl)phenyl]-N-methyl-methanesulfonamide]	–	50	–	55	90	90	98	25	35	98	90	98	85	95	100	0	20	–	pest or weed control at 250 g/ha ([1]; 0.25 kg/ha, scale 0 to 100): 98%; pest or weed control at 250 g/ha ([3]; 0.25 kg/ha, scale 0 to 100): 100%; pest or weed control at 250 g/ha ([8]; 0.25 kg/ha, scale 0 to 100): 100%
CC1(C)c2cccnc2C(O)=C(c2c(Cl)ccc(NS(C)(=O)=O)c2Cl)S1(=O)=O [I-6, N-[2,4-dichloro-3-(8-hydroxy-5,5-dimethyl-6,6-dioxo-thiopyrano[4,3-b]pyridin-7-yl)phenyl]methanesulfonamide]	100	–	100	–	85	95	98	0	40	–	–	–	95	98	98	–	–	100	pest or weed control at 125 g/ha [11]: 100%; Herbicidal activity ([4]; 0.031 kg/ha): 90; Herbicidal activity ([4]; 0.063 kg/ha): 98
CCN(c1c(Cl)ccc(C2=C(O)c3ncccc3CS2(=O)=O)c1Cl)S(C)(=O)=O [I-8, N-[2,6-dichloro-3-(8-hydroxy-6,6-dioxo-5H-thiopyrano[4,3-b]pyridin-7-yl)phenyl]-N-ethyl-methanesulfonamide]	100	–	100	–	100	90	–	0	25	90	95	95	100	100	100	0	0	100	–
